Source: patent US20100056524A1, “Compound” (priority 2008, published 2010)
Structures can show the parent of a compound that is named as a salt.

What follows are molecules tested against T1, TBK1 (Homo sapiens, UniProt Q9UHD2) (assay: TBK1 protein kinase assay ([γ-33P]ATP, P81 filterplates)). Conditions: 50 μM ATP; read-out: Potency (TBK1 IC50 potency score).
T1 construct: All protein kinases were of human origin and encoded full length proteins, unless indicated otherwise; His6; made in house; host or cells: insect Sf21 cells
T1 sequence (Q9UHD2 1-729): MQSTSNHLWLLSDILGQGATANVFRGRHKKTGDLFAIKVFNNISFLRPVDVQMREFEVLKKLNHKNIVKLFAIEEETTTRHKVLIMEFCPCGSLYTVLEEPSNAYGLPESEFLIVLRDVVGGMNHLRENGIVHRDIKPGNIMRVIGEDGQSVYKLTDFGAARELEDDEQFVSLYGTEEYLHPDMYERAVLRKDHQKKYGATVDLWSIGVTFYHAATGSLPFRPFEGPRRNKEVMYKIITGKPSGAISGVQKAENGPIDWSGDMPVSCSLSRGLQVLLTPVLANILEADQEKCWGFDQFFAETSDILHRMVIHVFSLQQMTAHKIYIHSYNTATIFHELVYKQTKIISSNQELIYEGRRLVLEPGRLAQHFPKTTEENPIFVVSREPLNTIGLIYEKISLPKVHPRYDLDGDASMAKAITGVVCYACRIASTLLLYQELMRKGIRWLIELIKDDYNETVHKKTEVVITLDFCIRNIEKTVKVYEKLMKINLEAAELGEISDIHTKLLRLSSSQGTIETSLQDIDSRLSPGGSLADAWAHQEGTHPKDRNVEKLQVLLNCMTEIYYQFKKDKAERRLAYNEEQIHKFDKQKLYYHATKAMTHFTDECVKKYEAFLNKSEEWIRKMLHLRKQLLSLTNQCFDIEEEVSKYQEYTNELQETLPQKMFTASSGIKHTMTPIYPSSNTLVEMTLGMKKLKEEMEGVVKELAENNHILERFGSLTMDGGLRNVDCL
Assay type: biochemical
Excerpt: All protein kinases were of human origin and encoded full length proteins, unless indicated otherwise. They were either expressed as glutathione S-transferase (GST) fusion proteins in Escherichia Coli or as hexahistidine (His6)-tagged proteins in insect Sf21 cells. GST fusion proteins were purified by affinity chromatography on glutathione-Sepharose, and His6-tagged proteins on nickel/nitriloacetate-agarose. The procedures for expressing some of the protein kinases used herein have been detailed previously.^8,9 The following sections outline the DNA vectors synthesised and the procedures used to express and purifying protein kinases that have not been reported previously.
The following kinases were expressed in Sf21 cells: Aurora B and Aurora C, extra-cellular signal-regulated kinase 8 (ERK8), microtubule affinity regulating kinase 3 (MARK3), protein kinase Bα[118-480][S473D], protein kinase Bβ (PKBβ[120-481][S474D], 3-phosphoinositide-dependent protein kinase-1 [52-556]
Assays were performed for 30 min using Multidrop Micro reagent dispensers (Thermo Electron Corporation, Waltham, Mass. 02454, USA) in a 96-well format. The concentration of magnesium acetate in the assays was 10 mM and the [γ-33P] ATP (800 cpm/pmol) was used at 5, 20 or 50 μM as indicated, in order to be at or below the Km for ATP for each enzyme. Protein kinases assayed at 5 μM ATP were: —ERK1, ERK8, PKBα, MARK3, Aurora C. Protein kinases assayed at 20 μM ATP were: —JNK1, PDK1, CHK1, CHK2, CDK2 and Aurora B. Protein kinases assayed at 50 μM ATP were: —MNK2, IKKepsilon and TBK1.
The assays were initiated with MgATP, stopped by addition of 5 μl of 0.5 M orthophosphoric acid and spotted on to P81 filterplates using a unifilter harvester (PerkinElmer, Boston, Mass. 02118, USA). The IC50 values of inhibitors were determined after carrying out assays at 10 different concentrations of each compound.
ERK1 and ERK8 were both assayed against myelin basic protein (MBP, 0.33 mg/ml). MARK3 was assayed against the peptide […] (300 μM), MNK2 against the eIF4E protein (0.5 mg/ml). PKBβ was assayed against the peptide […] (30 μM). TBK1 were assayed against ([…]) (300 μM). The substrates used for other protein kinases were described previously.^8,9
Unless stated otherwise, enzymes were diluted in 50 mM Tris/HCl pH 7.5, 0.1 mM EGTA, 1 mg/ml BSA, 0.1% (v/v) 2-mercaptoethanol and assayed in 50 mM Tris/HCl pH 7.5, 0.1 mM EGTA, 0.1% (v/v) 2-mercaptoethanol.

First: NC(=O)c1cccc(Nc2ncc(C3CC3)c(NCCCNC(=O)c3cccs3)n2)c1 [Example 36, Thiophene-2-carboxylic acid {3-[2-(3-carbamoyl-phenylamino)-5-cyclopropyl-pyrimidin-4-ylamino]-propyl}-amide trifluoroacetic acid salt]
Second: CC(=O)Nc1cccc(Nc2ncc(C3CC3)c(NCCCNC(=O)c3cccs3)n2)c1 [Example 51, Thiophene-2-carboxylic acid {3-[2-(3-acetylamino-phenylamino)-5-cyclopropyl-pyrimidin-4-ylamino]-propyl}-amide]
The IC50 of the first is higher: 100 to 1000 nM for the first, less than 100 nM for the second. The second is the more potent here.

First: O=C(NCCCNc1nc(Nc2ccc3ncsc3c2)ncc1C1CC1)c1cccs1 [Example 37, Thiophene-2-carboxylic acid {3-[2-(benzothiazol-6-ylamino)-5-cyclopropyl-pyrimidin-4-ylamino]-propyl}-amide. Hydrochloride salt]
Second: O=C(NCCCNc1nc(Nc2ccc3nccnc3c2)ncc1C1CC1)c1cccs1 [Example 56, Thiophene-2-carboxylic acid {3-[5-cyclopropyl-2-(quinoxalin-6-ylamino)-pyrimidin-4-ylamino]-propyl}-amide]
The IC50 of the first is lower: less than 100 nM for the first, 100 to 1000 nM for the second.

`O=C1CCCN1CCCNc1nc(Nc2cccc(F)c2)ncc1C1CC1` [Example 38, 1-{3-[5-Cyclopropyl-2-(3-fluoro-phenylamino)-pyrimidin-4-ylamino]-propyl}-pyrrolidin-2-one] and `CC(=O)Nc1cccc(Nc2ncc(C3CC3)c(NCCCN3CCCC3=O)n2)c1` [Example 39, N-(3-{5-Cyclopropyl-4-[3-(2-oxo-pyrrolidin-1-yl)-propylamino]-pyrimidin-2-ylamino}-phenyl)-acetamide trifluoroacetate salt] fall in the same range of IC50: 100 to 1000 nM for the first, 100 to 1000 nM for the second.

`O=C(NCCCNc1nc(Nc2ccc3ncsc3c2)ncc1C1CC1)C1CCC1` [Example 40, Cyclobutanecarboxylic acid {3-[2-(benzothiazol-6-ylamino)-5-cyclopropyl-pyrimidin-4-ylamino]-propyl}-amide. Hydrochloride salt] and `O=C(NCCCNc1nc(Nc2cccc(Cn3ccnc3)c2)ncc1C1CC1)C1CCC1` [Example 42, Cyclobutanecarboxylic acid {3-[5-cyclopropyl-2-(3-imidazol-1-ylmethyl-phenylamino)-pyrimidin-4-ylamino]-propyl}-amide] cannot be ordered by IC50: less than 100 nM for the first, less than 100 nM for the second.

`O=C(NCCCNc1nc(Nc2cccc(N3CCOCC3)c2)ncc1C1CC1)C1CCC1` [Example 41, Cyclobutanecarboxylic acid {3-[5-cyclopropyl-2-(3-morpholin-4-yl-phenylamino)-pyrimidin-4-ylamino]-propyl}-amide] and `O=C(NCCCNc1nc(Nc2cccc(N3CCCC3=O)c2)ncc1C1CC1)C1CCC1` [Example 48, Cyclobutanecarboxylic acid (3-{5-cyclopropyl-2-[3-(2-oxo-pyrrolidin-1-yl)-phenylamino]-pyrimidin-4-ylamino}-propyl)-amide] cannot be ordered by IC50: less than 100 nM for the first, less than 100 nM for the second.

`CN1CCN(c2ccc(Nc3ncc(C4CC4)c(NCCCNC(=O)C4CCC4)n3)cn2)CC1` [Example 43, Cyclobutanecarboxylic acid (3-{5-cyclopropyl-2-[6-(4-methyl-piperazin-1-yl)-pyridin-3-ylamino]-pyrimidin-4-ylamino}-propyl)-amide] and `O=C(NCCCNc1nc(Nc2ccc(N3CCOCC3)nc2)ncc1C1CC1)c1cccs1` [Example 54, Thiophene-2-carboxylic acid {3-[5-cyclopropyl-2-(6-morpholin-4-yl-pyridin-3-ylamino)-pyrimidin-4-ylamino]-propyl}-amide] cannot be ordered by IC50: less than 100 nM for the first, less than 100 nM for the second.

`CN(C)c1cccc(Nc2ncc(C3CC3)c(NCCCNC(=O)c3cccs3)n2)c1` [Example 44, Thiophene-2-carboxylic acid {3-[5-cyclopropyl-2-(3-dimethylamino-phenylamino)-pyrimidin-4-ylamino]-propyl}-amide trifluoroacetic acid salt] and `O=C(NCCCNc1nc(Nc2cccc(Cl)c2)ncc1C1CC1)c1cccs1` [Example 55, Thiophene-2-carboxylic acid {3-[2-(3-chloro-phenylamino)-5-cyclopropyl-pyrimidin-4-ylamino]-propyl}-amide] fall in the same range of IC50: 100 to 1000 nM for the first, 100 to 1000 nM for the second.

Compared with `CN1CCN(C(=O)c2cccc(Nc3ncc(C4CC4)c(NCCCNC(=O)c4cccs4)n3)c2)CC1` [Example 45, Thiophene-2-carboxylic acid (3-{5-cyclopropyl-2-[3-(4-methyl-piperazine-1-carbonyl)-phenylamino]-pyrimidin-4-ylamino}-propyl)-amide], `O=C(NCCCNc1nc(Nc2cccc(NC(=O)N3CCCC3)c2)ncc1C1CC1)c1cccs1` [Example 49, Pyrrolidine-1-carboxylic acid [3-(5-cyclopropyl-4-{3-[(thiophene-2-carbonyl)-amino]-propylamino}-pyrimidin-2-ylamino)-phenyl]-amide] is lower in IC50: 100 to 1000 nM for the first, less than 100 nM for the second. The second is the more potent here.

`O=C(NCCCNc1nc(Nc2cccc(N3CCOCC3)c2)ncc1C1CC1)c1cccs1` [Example 46, Thiophene-2-carboxylic acid {3-[5-cyclopropyl-2-(3-morpholin-4-yl-phenylamino)-pyrimidin-4-ylamino]-propyl}-amide trifluoroacetic acid salt] and `N#Cc1cccc(Nc2ncc(C3CC3)c(NCCCNC(=O)c3cccs3)n2)c1` [Example 61, Thiophene-2-carboxylic acid {3-[2-(3-cyano-phenylamino)-5-cyclopropyl-pyrimidin-4-ylamino]-propyl}-amide] fall in the same range of IC50: 100 to 1000 nM for the first, 100 to 1000 nM for the second.

First: O=C(NCCCNc1nc(Nc2ccccc2F)ncc1C1CC1)c1cccs1 [Example 52, Thiophene-2-carboxylic acid {3-[5-cyclopropyl-2-(2-fluoro-phenylamino)-pyrimidin-4-ylamino]-propyl}-amide]
Second: Cc1ccccc1Nc1ncc(C2CC2)c(NCCCNC(=O)c2cccs2)n1 [Example 59, Thiophene-2-carboxylic acid [3-(5-cyclopropyl-2-o-tolylamino-pyrimidin-4-ylamino)-propyl]-amide]
The IC50 of the first is lower: 100 to 1000 nM for the first, 1000 to 10000 nM for the second.

First: O=C(NCCCNc1nc(Nc2ccc3cnccc3c2)ncc1C1CC1)c1cccs1 [Example 53, Thiophene-2-carboxylic acid {3-[5-cyclopropyl-2-(isoquinolin-6-ylamino)-pyrimidin-4-ylamino]-propyl}-amide]
Second: O=C(NCCCNc1nc(Nc2ccc(F)cc2)ncc1C1CC1)c1cccs1 [Example 58, Thiophene-2-carboxylic acid {3-[5-cyclopropyl-2-(4-fluoro-phenylamino)-pyrimidin-4-ylamino]-propyl}-amide]
The IC50 of the first is higher: 1000 to 10000 nM for the first, 100 to 1000 nM for the second. The second is the more potent here.

`O=C(NCCCNc1nc(Nc2ccccc2)ncc1C1CC1)c1cccs1` [Example 57, Thiophene-2-carboxylic acid [3-(5-cyclopropyl-2-phenylamino-pyrimidin-4-ylamino)-propyl]-amide] and `Cc1nc2cc(Nc3ncc(C4CC4)c(NCCCNC(=O)c4cccs4)n3)ccc2s1` [Example 60, Thiophene-2-carboxylic acid {3-[5-cyclopropyl-2-(2-methyl-benzothiazol-5-ylamino)-pyrimidin-4-ylamino]-propyl}-amide] fall in the same range of IC50: 100 to 1000 nM for the first, 100 to 1000 nM for the second.
